{"source": "paper PMC6960228", "about": "“Ethoxysanguinarine, a Novel Direct Activator of AMP-Activated Protein Kinase, Induces Autophagy and Exhibits Therapeutic Potential in Breast Cancer Cells” (Frontiers in Pharmacology, 2020)", "key": {"[1]": {"system": "AMPK/mTORC1 signaling in MCF-7, MDA-MB-231, and MDA-MB-436 cells", "assay": "Western blot of AMPK/mTORC1 signaling", "assay_type": "cell-based, human", "settings": "24 h", "procedure": "Cells were lysed in radioimmunoprecipitation assay buffer containing 50 mM Tris, pH 8.0, 150 mM NaCl, 0.1% SDS, 0.5% sodium deoxycholate, 1% NP-40, 1 mM DTT, 1 mM NaF, 1 mM sodium orthovanadate, 1 mM phenylmethylsulfonyl fluoride (PMSF; Sigma-Aldrich; Merck KGaA), and 1% protease inhibitors cocktail (EMD Millipore, Billerica, MA, USA). Protein concentration was determined using the Bradford method. Equal amounts of sample (25 µg) were separated by SDS-PAGE (8–12% gels). Electrophoresed proteins were then transferred onto polyvinylidene fluoride membranes (EMD Millipore, Billerica, MA, USA). The membranes were blocked with 5% skimmed milk in Tris-buffered saline at room temperature for 1 h. Following blocking, membranes were incubated overnight at 4°C with primary antibodies and then rinsed with Tris-buffered saline with Tween 20. The following primary antibodies were used: anti-Glut3 (1:500; catalog no. sc-74399) (Santa Cruz Biotechnology, Inc., Dallas, TX, USA); anti-LC3 (1:1000; catalog no. 12741), anti-AMPKα (1:1000; catalog no. 2532), anti-phospho-AMPKα (Thr172) (1:1000; catalog no. 2535), anti-phospho-AMPKβ1 (Ser108) (1:1000; catalog no. 4181), anti-AMPKγ1 (1:1000; catalog no. 4187), anti-mTOR (1:1000; catalog no. 2983), anti-phospho-mTOR (Ser2448) (1:1000; catalog no. 5536), anti-P70S6K (1:1000; catalog no. 9202), anti-phospho-P70S6K (Thr389) (1:1000; catalog no. 92775), anti-4E-BP1 (1:1000; catalog no. 9234), anti-phospho-4E-BP1 (Thr37/46) (1:1000; catalog no. 2855), anti-ACC (1:1000; catalog no. 3676), anti-phospho-ACC ([…]) (1:1000; catalog no. 11818), anti-Glut1 (1:1000; catalog no. 12939), anti-Glut4 (1:1000; catalog no. 2213) (All Cell Signaling Technology, Inc., Danvers, MA, USA), and anti-GAPDH (1:5000; catalog no. M20006; Abmart, Shanghai, China). Membranes were then washed, and incubated with horseradish peroxidase-conjugated secondary antibody (1:10000; E030120-01 and E030110-01; EarthOx, LLC, San Francisco, CA, USA) for 1.5 h at room temperature. The protein bands were visualized using SuperSignal® West Pico PLUS Chemiluminescent substrate (catalog no. 34579; Pierce; Thermo Fisher Scientific, Inc., Rockford, IL, USA) ([Zhang et al., 2018]).\n(§1) Figure 3 Eth induces autophagy through the AMPK/mTORC1 signaling. (A): MCF-7, MDA-MB-231, or MDA-MB-436 cells were treated with increasing concentrations of Eth for 24 h. Western blot was performed using antibodies indicated. […] (D): MDA-MB-231 or MDA-MB-436 cells transfected with pQCXIP-GFP-LC3 plasmid were treated with Eth (2.0 µM) and/or CC (25 µM) for 24 h, and assessed by immunoﬂuorescence analyses. […] (G): MDA-MB-231 or MDA-MB-436 cells transfected with pQCXIP-GFP-LC3 plasmid were treated with Eth (1.0 µM or 1.6 µM) and/or Met (10 mM) for 24 h, and assessed by immunoﬂuorescence analyses. […]"}, "[2]": {"system": "LC3 redistribution to autophagosomes in BC cells", "assay": "GFP-LC3 autophagy assay (confocal microscopy)", "assay_type": "cell-based, human", "settings": "24 h", "description": "The cells were transfected with pQCXIP-GFP-LC3 plasmid using the Lipofectamine 3000 (Invitrogen; Thermo Fisher Scientific, Inc.) according to the recommended protocol by the manufacturer and then fixed in 4% paraformaldehyde. The percentage of cells with fluorescent dots representing GFP-LC3 translocation was counted. For visualization of cell nucleus, DAPI was used. Sections were observed using an Olympus laser scanning confocal microscope with imaging software (Olympus Fluoview FV-1000, Tokyo, Japan).\nFigure 2 Eth induces autophagy in BC cells. (A): MCF-7, MDA-MB-231, or MDA-MB-436 cells were treated with increasing concentrations of Eth for 24 h. Western blot was performed using antibodies indicated. GAPDH was used as the loading control. (B): MCF-7 (MDA-MB-231 or MDA-MB-436) cells were treated with 2.4 µM (2.0 µM or 2.0 µM) Eth for the indicated times, and cell lysates were subjected to western blot assay. (C): MCF-7, MDA-MB-231, or MDA-MB-436 cells transfected with pQCXIP-GFP-LC3 plasmid were treated with increasing concentrations of Eth for 24 h, and assessed by immunoﬂuorescence analyses. Scale bar = 20 µm. (D): MDA-MB-231 or MDA-MB-436 cells transfected with pQCXIP-GFP-LC3 plasmid were treated with Eth (2.0 µM) and/or 3-MA (1 mM) for 24 h, and assessed by immunoﬂuorescence analyses. Scale bar = 20 µm. […] (F): MCF-7, MDA-MB-231, or MDA-MB-436 cells were treated with Eth (3.5 µM, 3.0 µM, or 3.0 µM) and/or 3-MA (1 mM) for 24 h and analyzed by MTT assay. (G): MCF-7, MDA-MB-231, or MDA-MB-436 cells were treated with Eth (2.4 µM, 2.0 µM, or 2.0 µM) and/or 3-MA (1 mM) for 24 h, and western blot was performed using antibodies indicated. *P < 0.05.\nas §1, with “signaling.” for “signaling. (A): MCF-7, MDA-MB-231, or MDA-MB-436 cells were treated with increasing concentrations of Eth for 24 h. Western blot was performed using antibodies indicated.”"}, "AMPKα": {"system": "AMPKα", "assay": "Streptavidin agarose affinity assay", "assay_type": "binding, human", "settings": "cells treated with 4 μM Bio-Eth for 12 h", "procedure": "Cell pellets were lysed and the supernatant collection was incubated with indicated antibodies overnight at 4°C, after which protein A/G Plus beads (Santa Cruz Biotechnology) were added and incubated at 4°C for 4 h. The beads were washed 4 times in NETN buffer (1% NP-40, 2 mM EDTA, 40 mM Tris-HCl, 137 mM NaCl, pH 7.4), resuspended in SDS-PAGE loading buffer and boiled for 5 min. For streptavidin agarose affinity assay, cells upon Bio-Eth were lysed; the lysates were incubated with streptavidin agarose, washed and boiled in SDS-PAGE loading buffer. […] Western blot assays were performed.\nFigure 4 Eth is a direct activator of AMPK. (A): MCF-7, MDA-MB-231, or MDA-MB-436 cells were treated with increasing concentrations of Eth for 24 h, and AMPK activity assay was performed. (B): The binding mode of Eth docked into AMPK. (C): The binding mode of Eth docked into AMPK. α subunit is green, β subunit is cyan, γ subunit is magenta and Eth is gold. (D): Details of the binding site of Eth in the ADaM site of AMPK. The main residues involved in drug interactions are shown as labeled green sticks. α subunit is green, β subunit is cyan. The pSER-108 was shown in stick and colored by gold. (E) The interaction pattern of Eth with the residues. […] (H): Viability of MCF-7, MDA-MB-231 or MDA-MB-436 cells exposed to Biotin-Eth as determined by MTT assay. […]"}, "MDA-MB-231": {"system": "MDA-MB-231", "assay": "MTT cytotoxicity assay", "assay_type": "cell-based", "settings": "Homo sapiens, MDA-MB-231, 24 h", "description": "(§2) Human BC cell lines MCF-7, MDA-MB-231, DMA-MB-436, SK-BR3, MDA-MB-468, MDA-MB-453, and MDA-MB-435S and non-tumorigenic MCF-10A human mammary epithelial cells were obtained from American Type Culture Collection (ATCC; Manassas, VA, USA). MCF-7, SK-BR3, MDA-MB-231, and MDA-MB-436 cells were maintained in Dulbecco’s modified Eagle’s medium (DMEM; high glucose; Gibco; Thermo Fisher Scientific, Inc., Waltham, MA, USA) supplemented with 10% fetal bovine serum (FBS; HyClone; Logan, UT, USA) and antibiotics and incubated in a humidified atmosphere with 5% CO2 at 37°C. MDA-MB-468, MDA-MB-453, and MDA-MB-435S cells were maintained in Leibovitz’s L-15 (Gibco) supplemented with 10% FBS and antibiotics and incubated in a humidified atmosphere without CO2 at 37°C. MCF-10A cells were maintained in DMEM/F12 medium containing 5% horse serum (HS), insulin ([…]), epidermal growth factor (EGF, 20 ng/mL), choleratoxin ([…]), hydrocortisone ([…]), penicillin (50 U/mL), and streptomycin (50 U/mL), and incubated in a humidified atmosphere with CO2 at 37°C.\n(§3) Cells were seeded into 96-well plate and pre-cultured for 24 h, then treated with Eth for 24. Cell cytotoxicity was determined by MTT assay. The absorbance was measured at 490 nm by automated microplated reader (BioTek Instruments, Inc., Winooski, VT, USA), and the cell death rate was calculated as followed: inhibition rate (%) = (average A490 of the control group − average A490 of the experimental group)/(average A490 of the control group − average A490 of the blank group) × 100%. Cell viability was estimated by trypan blue dye exclusion."}, "MCF-7": {"system": "MCF-7", "assay": "MTT cytotoxicity assay", "assay_type": "cell-based", "settings": "Homo sapiens, MCF7, MCF-7, 24 h", "description": "as §2, §3"}, "MDA-MB-436": {"system": "MDA-MB-436", "assay": "MTT cytotoxicity assay", "assay_type": "cell-based", "settings": "Homo sapiens, MDA-MB-436, 24 h", "description": "as §2, §3"}, "[3]": {"system": "LC3-II and Beclin-1 in MCF-7, MDA-MB-231, and MDA-MB-436 cells", "assay": "Western blot of autophagy markers", "assay_type": "cell-based, human", "settings": "Eth 2.4, 2.0 or 2.0 µM and 3-MA 1 mM, 24 h", "procedure": "Cells were lysed in radioimmunoprecipitation assay buffer containing 50 mM Tris, pH 8.0, 150 mM NaCl, 0.1% SDS, 0.5% sodium deoxycholate, 1% NP-40, 1 mM DTT, 1 mM NaF, 1 mM sodium orthovanadate, 1 mM phenylmethylsulfonyl fluoride (PMSF; Sigma-Aldrich; Merck KGaA), and 1% protease inhibitors cocktail (EMD Millipore, Billerica, MA, USA). Protein concentration was determined using the Bradford method. Equal amounts of sample (25 µg) were separated by SDS-PAGE (8–12% gels). Electrophoresed proteins were then transferred onto polyvinylidene fluoride membranes (EMD Millipore, Billerica, MA, USA). The membranes were blocked with 5% skimmed milk in Tris-buffered saline at room temperature for 1 h. Following blocking, membranes were incubated overnight at 4°C with primary antibodies and then rinsed with Tris-buffered saline with Tween 20. […]\n(§4) Figure 2 Eth induces autophagy in BC cells. […] (C): MCF-7, MDA-MB-231, or MDA-MB-436 cells transfected with pQCXIP-GFP-LC3 plasmid were treated with increasing concentrations of Eth for 24 h, and assessed by immunoﬂuorescence analyses. […] (D): MDA-MB-231 or MDA-MB-436 cells transfected with pQCXIP-GFP-LC3 plasmid were treated with Eth (2.0 µM) and/or 3-MA (1 mM) for 24 h, and assessed by immunoﬂuorescence analyses. […] (F): MCF-7, MDA-MB-231, or MDA-MB-436 cells were treated with Eth (3.5 µM, 3.0 µM, or 3.0 µM) and/or 3-MA (1 mM) for 24 h and analyzed by MTT assay. […]"}, "[4]": {"system": "MCF-7, MDA-MB-231, or MDA-MB-436 cells", "assay": "MTT assay, Eth and/or 3-MA", "assay_type": "cell-based, human", "settings": "Eth 3.5, 3.0 or 3.0 µM and 3-MA 1 mM, 24 h", "procedure": "as §3\nas §4, with “cells. (A): MCF-7, MDA-MB-231, or MDA-MB-436 cells were treated with increasing concentrations of Eth for 24 h. Western blot was performed using antibodies indicated. GAPDH was used as the loading control.” for “cells.”"}}}
{"compound": "CN(C)C(=N)N=C(N)N", "note": "[metformin, reference compound]", "values": [{"measurement": "effect of metformin co-treatment on Eth action on mTORC1 phosphorylation and autophagy", "setting": "[1]; Eth 1.6, 1.0 or 1.6 µM and Met 10 mM", "value": "enhanced the effect of Eth on the phosphorylation of mTORC1 and autophagy"}]}
{"compound": "c1cc(-c2cnn3cc(-c4ccc(OCCN5CCCCC5)cc4)cnc23)ccn1", "note": "[CC, reference compound]", "values": [{"measurement": "effect of CC on LC-3II expression and autophagic vacuoles in Eth-treated cells", "setting": "[2]; Eth 2.0 µM and CC 25 µM", "value": "reversed the increased LC-3II expression and number of autophagic vacuoles"}, {"measurement": "effect of CC on Eth-induced reduction in mTORC1 phosphorylation", "setting": "[1]; Eth 2.4, 2.0 or 2.0 µM and CC 25 µM", "value": "reversed the reduction in phosphorylation"}]}
{"compound": "CN1c2c(ccc3cc4c(cc23)OCO4)-c2ccc3c(c2C1OC(=O)CCCCC1SCC2NC(=O)NC21)OCO3", "note": "(stereo not shown) [Bio-Eth]", "values": [{"measurement": "pull-down of AMPKα by streptavidin agarose", "setting": "AMPKα", "value": "AMPKα was pulled down by streptavidin agarose"}, {"measurement": "IC50", "setting": "MDA-MB-231", "value": 3.74, "unit": "µM"}, {"measurement": "IC50", "setting": "MCF-7", "value": 3.78, "unit": "µM"}, {"measurement": "IC50", "setting": "MDA-MB-436", "value": 3.71, "unit": "µM"}]}
{"compound": "Cn1cnc(=N)c2[nH]cnc21", "note": "[3-MA]", "values": [{"measurement": "effect of 3-MA on upregulation of LC-3II and Beclin1 by Eth", "setting": "[3]", "value": "antagonized the upregulation of autophagy-related proteins LC-3II and Beclin1"}, {"measurement": "effect of 3-MA on induction of autophagy by Eth", "setting": "[2]; Eth 2.0 µM and 3-MA 1 mM", "value": "antagonize the induction of autophagy by Eth"}, {"measurement": "effect of 3-MA on cell proliferation inhibited by Eth", "setting": "[4]", "value": "significantly reversed the cell proliferation inhibited by Eth"}]}
